# Assay results from patent US9422238B2, “ICMT inhibitors” (National University of Singapore, priority 2012, dated 2016).
# Read-outs that look alike come from different tables or passages of the source.
# Experiments:
# [1] = physchem; conditions: for solubility at 24 h: 25 °C; for solubility at 24 h / solubility at 3 h: pH 7.4, aqueous buffer, kinetic from dmso stock
# Method: The turbid solution was delivered to the filter plate, agitated for a specific time period and then filtered. The concentration of dissolved compound in the filtrate was determined by uv spectroscopy and referred to pre-constructed calibration curves for solubility determination.
# (§1) Determination of aqueous solubility was carried out on Multiscreen® Solubility filter plates (Millipore-MSSLBPC10) from Millipore Corporation (MA, USA). The protocol (PC2445EN00, Millipore Corporation) was followed. Briefly, various concentrations of the test compound were prepared in Universal buffer (pH 7.4)/acetonitrile/DMSO. The UV absorbances of these solutions were obtained at a pre-determined wavelength and used to construct a calibration curve for the test compound. Next, a stock solution of the test compound in DMSO was prepared at a known concentration, diluted with Universal buffer (pH 7.4), dispensed into wells in the Multiscreen Solubility filter plate, and agitated for a period of time. The suspension is then filtered, the filtrate collected and diluted with acetonitrile to give the same solvent composition used to prepare the calibration solutions. The absorbance of the diluted filtrate was then read at the predetermined wavelength and the concentration of the filtrate (taken here to be equivalent to the solubility of the test compound) was determined from the calibration curve.
# as §1, with “24 hours at room temperature (25 deg C.). […]” for “a period of time.”, “was” for “is then”, “was” for “was then”, “(equivalent” for “(taken here to be equivalent”, “curve. […] LCMS determinations were made on an Agilent 1200 Series HPLC linked to a AB Sciex Instruments 3200 Q TRAP LC/MS/MS. Separations were carried out on a Phenomenex Luna column [3u, C18(2), 100A, 5×4.6 mm]. […] Quantification was based on the ratio of peak areas of the daughter ion and the mother ion (M+H), normalized against the same ratio obtained for the internal standard. The solubility determinations were carried out in triplicates or more from two different stock solutions.” for “curve.”
# [2] = test system: Human hepatocellular carcinoma HepG2 cells; test: Cell viability (MTS, 72 h); assay type: cell-based; conditions: HepG2, Table 6, mean (SD), read-out: IC50 (μM) HepG2
# Method: (§2) Cell viability was determined from the expression:
# (§3) The plot was constrained to ≧0 and ≦100%.
# Human hepatocellular carcinoma HepG2 and human pancreatic cancer MIA PACA II cells were obtained from ATCC (Rockville, Md.). They were grown in DMEM (high glucose, Invitrogen) supplemented with 10% FBS, 50 μg/mL penicillin and 50 μg/mL streptomycin, 37° C., 5% CO2 until they reached 80-90% confluency, after which they were subcultured. Passage numbers were kept within 7-14 passages for both cell types.
# [3] = test system: MDA-MB-231 human breast cells; test: Antiproliferative activity / cell viability (MTS, 72 h); conditions: Homo sapiens
# Method: (§4) The relative number of the live cells was determined using the CellTiter® 96 AQueous One Solution Cell Proliferation Assay (Promega). Determinations were made in duplicates or triplicates.
# Human breast cancer MDA-MB231, liver cancer HepG2 and lung fibroblast cells were purchased from ATCC (Rockville, Md.). MDA-MB231 cells and IMR-90 cells were grown in DMEM (Sigma Aldrich, Singapore) and EMEM (Sigma Aldrich, Singapore) respectively at 37° C., 5% CO2. DMEM was supplemented with 10% fetal bovine serum (Invitrogen, heat treated at 65 deg C., 30 min), 50 units/L penicillin-G and 50 μg/mL streptomycin. EMEM was supplemented with 10% fetal bovine serum (heat treated as above), 100 mg/L penicillin-G and 100 μg/mL streptomycin.
# Cell viability was assessed using CellTitre 96® Aqueous One Solution (Promega, Madison, Wis.) containing the tetrazolium salt 3-(4,5-dimethylthiazol-2-yl)-5-(3-carboxymethoxyphenyl)-2-(4-sulfophenyl)-2H-tetrazolium (MTS). […] Final concentration of DMSO per well was maintained at 0.5% v/v. […] Cell viability was determined from the expression:
# The plot was constrained to ≧0 and ≦100%. At least 3 independent determinations of IC50 were made using two different stock solutions of test compound.
# [4] = test system: PC3 Prostrate cancer cells; test: as above; assay type: cell-based, human; conditions: Homo sapiens
# Method: as §4
# [5] = test system: Human lung fibroblast IMR90 cells; test: Cell viability on non-malignant cells (MTS, 72 h); assay type: cell-based
# Method: as §2, §3
# Human lung fibroblast IMR90 cells were purchased from ATCC (Rockville, Md.) and grown in Eagle's Minimal Essential Media (EMEM, Sigma Aldrich, Singapore) at 37° C., 5% CO2. […] Seeding density was maintained at 4000 cells per well.
# [6] = target: T1, Isoprenylcysteine carboxyl methyltransferase (Icmt) (Homo sapiens, UniProt O60725); test: Icmt inhibition, scintillation proximity assay with BFC and [3H]SAM; assay type: biochemical
# T1 construct: made in house; host or cells: Sf9 (Spodoptera frugiperda) insect cells; membrane preparation provided by Prof PJ Casey (Duke University / Duke-NUS)
# T1 sequence (O60725 whole entry, species assumed): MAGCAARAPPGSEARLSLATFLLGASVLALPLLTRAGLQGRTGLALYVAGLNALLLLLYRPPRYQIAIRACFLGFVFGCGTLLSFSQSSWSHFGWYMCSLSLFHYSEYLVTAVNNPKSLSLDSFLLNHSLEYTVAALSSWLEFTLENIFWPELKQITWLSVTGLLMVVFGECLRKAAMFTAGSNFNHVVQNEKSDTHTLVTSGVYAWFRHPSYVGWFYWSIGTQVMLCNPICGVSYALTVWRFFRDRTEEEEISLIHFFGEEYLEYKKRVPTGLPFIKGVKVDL
# Method: Isoprenylcysteine carboxyl methyltransferase (Icmt) was provided by Prof PJ Casey of Duke University, NC. S-Adenosylmethionine (SAM), magnesium chloride Hexahydrate (MgCl2), tartrazine, 4-(2-hydroxyethyl)-1-piperazineethanesulfonic acid (HEPES), dimethyl sulfoxide (DMSO) and dithiotreitol (DTT) were purchased from Sigma (Mo, USA). [^3H] S-Adenosylmethionine, [^3H] Biotin and Streptavidin PVT SPA Beads were purchased from PerkinElmer (Waltham, Mass.). Assays were performed in black small volume 384 well microtitre plates from PerkinElmer.
# Stocks of Icmt membrane protein (30 μg/μL) stored at −80° C. were thawed at 37° C. and placed on ice. The Icmt membrane protein was diluted in assay buffer (70 mM HEPES, 100 mM NaCl, 5 mM Mg Cl2 and 3 mM DTT, pH 7.5) to a 0.03 μg/μL working concentration and added to the wells of a microtitre plate (5 μl/well). To each wells 20 μl of the reaction buffer was added. The reaction was initiated with the addition of 5 μL of substrate solution containing BFC (6 μM), SAM (3 μM) and 30 μCi/mL [^3H] SAM (all of these reagents were stored at −20° C., SAM reagents thawed on ice, BFC thawed at RT). The plate was incubated at 37° C. for 30 minutes. The reaction was stopped with the addition of 15 μL of stop solution containing SAM (150 μM) and Streptavidin SPA beads (20 mg/mL). Following overnight incubation at ambient temperature radioactivity was counted on a Microbeta Trilux™ (Perkin Elmer, Turku, Finland).
# Sf9 (Spodoptera frugiperda ovarian) membranes containing recombinant Icmt were provided by Prof PJ Casey (Duke University, NC and Duke-NUS Graduate Medical School). S-Adenosylmethionine (SAM), magnesium chloride hexahydrate, tartrazine, 4-(2-hydroxyethyl)-1-piperazineethanesulfonic acid (HEPES) and dithiotreitol (DTT) were purchased from Sigma (Mo, USA). [^3H] S-Adenosylmethionine, [^3H] biotin and streptavidin PVT SPA Beads were purchased from PerkinElmer (Waltham, Mass.). Biotinylated farnesylcysteine was synthesized as described in an earlier report. Assays were performed in black 384-well microtitre plates from PerkinElmer.
# A vial of Icmt membrane protein (30 μg/μL) stored at −80° C. was thawed at 37° C. and placed on ice. The protein was diluted in assay buffer (70 mM HEPES, 100 mM NaCl, 5 mM MgCl2, 3 mM DTT, pH 7.5) to 0.03 μg/μL and aliquots were added to each well (5 μL/well), followed by 20 μL of the assay buffer. The reaction was initiated by adding 5 μL of a solution containing biotinylated BFC (6 μM), SAM (3 μM) and 30 μCi/mL [^3H] SAM. These reagents were stored at −20° C. and thawed on ice (SAM, [^3H] SAM) or at room temperature (BFC). The plate was incubated at 37° C. for 30 minutes after which the reaction was quenched by adding 15 μL of a solution comprising SAM (150 μM) and streptavidin SPA beads (20 mg/mL). After overnight incubation at ambient temperature, radioactivity was counted (Microbeta Trilux™, Perkin Elmer, Turku, Finland). The degree of inhibition was assessed from the radioactivity obtained in presence of test compound compared to that obtained from the control sample […]. Two independent determinations were made for each test compound.
# [7] = test system: MDA-MB-231 human breast cells; conditions: earlier study; read-out: IC50 MDA-MB-231, previous value; cited from earlier work
# [8] = Aggregation tendency by dynamic light scattering (DLS); assay type: physicochemical; conditions: for DLS count rate (kcps): 1% DMSO, potassium phosphate buffer 5 mM pH 7.4
# Method: Stock solutions (10 mM) of test compounds prepared in DMSO, diluted to 1 mM with DMSO and then serially diluted with potassium phosphate buffer (5 mM, pH 7.4, prefiltered before use) to give final concentrations of 1 μM and 10 μM. Final concentration of DMSO was 1% v/v. Measurements were carried out on the Malvern Instrument Zetasizer Nano ZS system equipped with a 4 mW He—Ne laser at 633 nm and detector angle of 90°. Three or more determinations of derived count rates (kilocounts per second, kcps) were obtained from each concentration of test compound, using two separately prepared stock solutions. Data collection was carried out using the software supplied with the instrument. Results are represented as mean±standard deviation. The positive control was benzyl benzoate (250 μM) which gave a count rate of 1180 kcps (±35). The vehicle (phosphate buffer, 1% DMSO) gave a reading of 14.9±0.4.
# [9] = Parallel Artificial Membrane Permeability Assay (PAMPA); conditions: 500 uM stock, similar conditions
# Method: Briefly, determinations were carried out on MultiScreen-IP PAMPA assay (donor) plates (MAIPNTR10) and MultiScreen Receiver Plates (MATRNPS50) from Millipore Corporation (USA) with 1% lecithin (L-α-phosphatidylcholine from lyophilized powder of egg yolk, Sigma Aldrich, USA) in dodecane (ReagentPlus®, Sigma Aldrich, USA) as lipid barrier. 5 μL of 1% lecithin in dodecane was dispensed into the wells of the donor plates. […] The mobile phase was Milli-Q water (0.1% formic acid) and acetonitrile (0.1% formic acid), run on gradient.
# Pe was obtained from Equation 1:
# [formula] Where VA and VD are the volumes of acceptor (cm^3) and donor (cm^3) wells respectively, A is the area of the surface area of the membrane (0.24 cm^2), t is the permeation time (s); S is the fraction of sample remaining in the donor and acceptor wells after permeation time and is determined from Equation 2, CA and CD are the concentrations (μM) of test/reference compound in acceptor and donor wells respectively.
# The Pe of each compound was obtained from at least 3 separate experiments using no less than 2 different stock solutions. For each independent determination, triplicates (3 wells) were run for each compound.
# [10] = MDA-MB-231, 72 h, read-out: IC50MDA-MB-231 (μM)
# [11] = MDA-MB-231, read-out: IC50 (μM) MDA MB 231
# [12] = PC-3M, Table 3, 72 h, mean (SD), read-out: IC50 PC3
# [13] = Table 6, from earlier table, read-out: IC50 (μM) PC3
# [14] = IMR-90, Table 6, mean (SD), read-out: IC50 (μM) IMR90
# [15] = Table 3, mean of two or more determinations (SD), read-out: IC50 Icmt
# [16] = MDA-MB-231, 72 h, read-out: IC50 MDA-MB-231 (μM)
# [17] = IMR-90, further testing, 72 h, mean (SD), read-out: IC50 IMR90
compound,measurement,setting,value
CCCCCCCCn1cc(CN(CC)CC)c2cc(-c3cnc(N(C)C)nc3)ccc21,solubility at 24 h,[1],24.9 µM
same,solubility at 3 h,[1],25.3 µM
CCCCCCCCn1cc(CN(CC)CC)c2cc(-c3cccc(C)c3)ccc21 [Compound 8-1],IC50,[2],6.57 µM
same,solubility at 24 h,[1],< 1 µM
same,solubility at 3 h,[1],< 1 µM
same,IC50,[3]; [10],7.9 µM
same,IC50,[3]; [11],7.9 µM
same,IC50,[4]; [12],6.31 µM
same,IC50,[4]; [13],6.31 µM
same,IC50,[5]; [14],5.26 µM
same,IC50,"[6]; Table 3, mean of two or more determinations (SD), listed as 8.1, read-out: IC50 Icmt",2.18 µM
same,IC50,[6]; [15],2.2 µM
same,IC50,[7],3.6 µM
"CCCCCCCCn1cc(CN(CC)CC)c2cc(-c3cccnc3)ccc21 [Compound 8-7, Diethyl-(1-octyl-5-pyridin-3-yl-1H-indol-3ylmethyl)-amine]",Aqueous Solubility (pH 7.4) 24 hours,"[1]; 24 h, pH 7.4",244.8 (9.7) μM
same,Solubility (μM),"[1]; 24 h, pH 7.4",244.8 (9.7) μM
same,solubility at 3 h,[1],250 µM
same,IC50,[3]; [16],6.01 µM
same,IC50,[3]; [10],5.5 µM
same,IC50,[4]; [12],5.84 µM
same,IC50,[5]; [17],5.52 µM
same,IC50,[6],1.8 µM
same,IC50,[6]; [15],1.75 µM
same,DLS count rate (kcps),[8]; 1 μM,16.8 kcps
same,DLS count rate (kcps),[8]; 10 μM,16.5 kcps
"CCCCCCCCn1cc(CN(CC)CC)c2cc(-c3ccc(S(C)(=O)=O)cc3)ccc21 [Compound 8-10, Diethyl-[5(4-methanesulfonyl-phenyl)-1-octyl-1H-indol-3ylmethyl]-amine]",IC50,[2],3.44 µM
same,IC50,[3]; [10],5.56 µM
same,IC50,[3]; [11],5.56 µM
same,IC50,[4]; [12],4.74 µM
same,IC50,[4]; [13],4.74 µM
same,IC50,[5]; [14],5.52 µM
same,IC50,[6]; [15],1.72 µM
"CCCCCCCCn1cc(CN(CC)CC)c2cc(-c3cncnc3)ccc21 [Compound 8-15, Diethyl-(1-octyl-5-pyrimidin-5-yl-1H-indol-3ylmethyl)-amine]",solubility at 24 h,[1],272 µM
same,Solubility (μM),"[1]; 24 h, pH 7.4",271.56 (6.63) μM
same,solubility at 3 h,[1],266 µM
same,IC50,[3]; [16],13.2 µM
same,IC50,[3]; [10],9 µM
same,IC50,[4]; [12],8.32 µM
same,IC50,[5]; [17],9.84 µM
same,IC50,[6]; [15],1.58 µM
same,IC50,"[6]; further testing, mean (SD), read-out: IC50 Icmt",1.6 µM
same,DLS count rate (kcps),[8]; 1 μM,20.4 kcps
same,DLS count rate (kcps),[8]; 10 μM,28.9 kcps
"CCCCCCCCn1cc(CN(CC)CC)c2cc(-c3ccc(S(=O)(=O)NC)cc3)ccc21 [Compound 8-24, 4-(3-Diethylaminomethyl-1-octyl-1H-indol-5-yl)-N-methyl-benzensulfonamide]",IC50,[2],4.76 µM
same,IC50,[3]; [10],8.52 µM
same,IC50,[3]; [11],8.7 µM
same,IC50,[6]; [15],1.71 µM
"O=C(OCc1ccccc1)c1ccccc1 [benzyl benzoate, reference compound]",DLS count rate,"[8]; positive control, 250 μM",1180 kcps
"Cn1c(=O)c2c(ncn2C)n(C)c1=O [caffeine, reference compound]",Pe sequence of standard compounds,[9],verapamil>quinidine>caffeine
"C=C[C@H]1C[N@@]2CC[C@H]1C[C@@H]2[C@@H](O)c1ccnc2ccc(OC)cc12 [quinidine, reference compound]",Pe sequence of standard compounds,[9],verapamil>quinidine>caffeine
